Data taken from patent publication US8865741B2, “Aminoindane compounds and use thereof in treating pain” (Asana Biosciences, LLC, priority 2011, dated 2014).

Tested on: sodium channel in hTRPV1-N1E115 cells
Assay: FLIPR membrane potential assay of sodium channel response in hTRPV1-N1E115 cells, with (47° C.) or without (25° C.) heat activation of hTRPV1
Assay type: cell-based
Conditions: for hTRPV1-N1E Nav 0.1 mM (% inhibition) 25° C. / hTRPV1-N1E Nav 1 mM (% inhibition) 25° C.: 25° C. (no heat activation of hTRPV1); for hTRPV1-N1E Nav 0.1 mM (% inhibition) 47° C. / hTRPV1-N1E Nav 1 mM (% inhibition) 47° C.: 47° C. (heat activation of hTRPV1); for IC50 / hTRPV1-N1E Nav 0.1 mM (% inhibition) 47° C., DMSO: 47° C.; for IC50: class symbols, read-out: hTRPV1-N1E IC50 (μM) 47° C.
Source text: In one embodiment, a modified FLIPR® (Fluorometric Imaging Plate Reader) based assay system was developed which is capable of discriminating between non-specific versus hTRPV1-mediated entry of test compounds. Advantageously, the assay system utilizes heat activated opening of hTRPV1 channels followed by an assessment of internal sodium channel block. The assay allows a permanently charged compound to selectively enter through opened hTRPV1 channels and that compound's potency in inhibiting sodium channels from the cytoplasm side of the same cell can be assessed and quantified.
The assay is readily performed in multi-well assay plates into which cells in growth media are added and incubated under conditions which permit the formation of a confluent monolayer over a period of hours prior to the start of the assay. Conventional culture media and conditions may be utilized. Duplicate cell assay plates are prepared for each experiment.
The spent media from the cell seeded plates is removed on the day of the assay and replaced with Membrane potential Dye-Blue (Molecular Devices). The dye was prepared in assay buffer following manufacturer's instructions. The dye-loaded plate is incubated at room temperature (about 25° C.) for about 30 minutes in order to pre-load the cells with dye. Optionally, the cells may be loaded with the dye simultaneously with adding the test compounds.
The test compounds are diluted in the Assay Buffer and added to each well of a specific 384-well ‘compound plate’, which serves as a source plate for compound addition using the FLIPR® platform. The concentration of compounds in the compound-plate was adjusted to achieve the desired final concentration when added to the cells in the ‘cell-plate’. After completion of the dye incubation period, the dye loaded cell-plates and the compound source plates are inserted into the FLIPR® Tetra™ device with a 384 FLIPR® tip box (Molecular Devices, Inc.) according to manufacturer's instructions. The compounds are robotically added to the dye loaded cell-plates using software integral to the FLIPR® Tetra™ instrument.
Immediately following compound addition, hTRPV1 is activated, in one of the duplicate cell plates, by heating. Specifically, entire multi-well plate containing the compound-cells mixture is incubated at 47° C. for 10 minutes, after which they are returned to room temperature (about 25° C.) for a further 30 minutes. Heat activation of hTRPV1 was omitted from the replicate cell plate which was simply maintained at room temperature for the entire 40 minutes.
A membrane potential response is elicited in the dye- and compound-loaded cells by the addition of veratridine which is a known sodium channel ‘agonist’. As illustrated in an example herein, an agonist plate containing veratridine (Sigma) is prepared in advance and is inserted into suitable devices such as, e.g., the FLIPR® TETRA® device for a “2nd addition” as instructed by the manufacturer. The concentration of veratridine in the ‘agonist plate’ was adjusted to achieve a final concentration of 100 μM when added to the cells in the cell-plate. Final concentrations of veratridine greater or lesser than 100 μM may also be used but the signal measured by the FLIPR®^Tetra™ device or another suitable device may vary accordingly.
The exposure of the cells in the cell-plate to veratridine induces sodium channels in the cells to open and the resulting ion flux produces a membrane potential depolarization that is detected as a fluorescence signal by the FLIPR® ^Tetra™ Device. The activity of test compounds is determined by their ability to attenuate the veratridine-induced fluorescence signal, the most promising compounds are those that show an enhanced activity in the heat-activated cell plate over the non-heat-activated cell plate. […]

Structure (SMILES) | hTRPV1-N1E Nav 0.1 mM (% inhibition) 25° C. [%] | hTRPV1-N1E Nav 0.1 mM (% inhibition) 47° C. | hTRPV1-N1E Nav 1 mM (% inhibition) 25° C. | hTRPV1-N1E Nav 1 mM (% inhibition) 47° C. | IC50 [µM] | hTRPV1-N1E Nav 0.1 mM (% inhibition) 25° C., DMSO [%] | hTRPV1-N1E Nav 0.1 mM (% inhibition) 47° C., DMSO
C[N+]1(C)CCCCC1CCCN(c1ccccc1)C1Cc2ccccc2C1.[I-] (centres unmarked) [Example 7] | 27.3 | 57.9 (N = 2) % | Insoluble | Insoluble | 10 to 100 |  | 
CC[N+]1(CC)CCCCC1CCCN(c1ccccc1)C1Cc2ccccc2C1.[I-] (centres unmarked) [Example 26, 1,1-Diethyl-2-[3-((indan-2-yl)(phenyl)amino)propyl]piperidinium iodide] | 44.6 | 64.7 (N = 2) % | Insoluble | Insoluble | 10 to 100 |  | 
Cc1ccccc1N(CC[C@@H]1CCCC[N+]1(C)C)C1Cc2ccccc2C1 [Example 34, (S)-1,1-Dimethyl-2-[2-((indan-2-yl)(2-methylphenyl)amino)ethyl]piperidinium iodide] |  |  |  |  | 10 to 100 |  | 
Cc1ccccc1N(CCC1CCCC[N+]12CCOCC2)C1Cc2ccccc2C1.[Cl-] (centres unmarked) [Example 41, 7-[2-((indan-2-yl)(2-methylphenyl)amino)ethyl]-3-oxa-6-azaspiro[5.5]undecan-6-ium chloride] | 8.3 |  |  |  | 10 to 100 |  | 
[Br-].c1ccc(N(CCC2CCCC[N+]23CCCC3)C2Cc3ccccc3C2)cc1 (centres unmarked) [Example 20, 6-[2-((Indan-2-yl)(phenyl)amino)ethyl]-5-azoniaspiro[4.5]decane bromide] | 11.2 | 94.8 (N = 3) % | 0 (N = 3) % | 48.9 (N = 3) % | 10 to 100 |  | 
C[N+]1(C)CCCCC1CCN(c1ncccn1)C1Cc2ccccc2C1.[I-] (centres unmarked) [Example 38, 1,1-dimethyl-2-[2-((indan-2-yl)(pyrimidine-2-yl)amino)ethyl]piperidinium iodide] | 25.9 | 37.5 (N = 2) % | 46.6 (N = 2) % | 70.4 (N = 2) % |  |  | 
Cc1ccccc1N(CCC1CCCC[N+]1(CCO)CCO)C1Cc2ccccc2C1.[Br-] (centres unmarked) [Example 46, 1,1-Bis(2-hydroxyethyl)-2-[2-((indan-2-yl)(2-methylphenyl)amino)ethyl]piperidinium bromide] | 31.8 | 94.4 (N = 2) % |  |  | 10 to 100 |  | 
CCC[N+]1(CCC)CCCC[C@H]1CCN(c1ccccc1)C1Cc2ccccc2C1.[I-] [Example 1, (S)-1,1-dipropyl-2-[2-((indan-2-yl)(phenyl)amino)ethyl]piperidinium iodide] |  |  |  |  |  | 56 | 87 (N = 4, DMSO) %
Cc1ccc(N(CCC2CCCC[N+]2(C)C)C2Cc3ccccc3C2)cc1.[I-] (centres unmarked) [Example 22, 1,1-Dimethyl-2-[2-((indan-2-yl)(4-methylphenyl)amino)ethyl]piperidinium iodide] | 8.7 | 62.7 (N = 2) % | 48 (N = 2) % | 69.9 (N = 2) % | 10 to 100 |  | 
CC[N+]1(CC)CCCC1CCN(c1ccccc1)C1Cc2ccccc2C1.[I-] (centres unmarked) [Example 36, 1,1-diethyl-2-[2-((indan-2-yl)(phenyl)amino)ethyl]pyrrolidinium iodide] | 5.4 | 74.0 (N = 2) % |  |  | 10 to 100 |  | 
CCC[N+]1(CCC)CCCC[C@@H]1CCN(c1ccccc1)C1Cc2ccccc2C1.[I-] [Example 12, (R)-1,1-Dipropyl-2-[2-((indan-2-yl)(phenyl)amino)ethyl]piperidinium iodide] |  |  |  |  |  | 49 | 87 (N = 4, DMSO) %
C[N+]1(C)CCCC1CN(c1ccccc1)C1Cc2ccccc2C1.[I-] (centres unmarked) [Example 8, 1,1-dimethyl-2-[((indan-2-yl)(phenyl)amino)methyl]pyrrolidinium iodide] | 6.5 | 22.7 (N = 2) % | 39.9 (N = 2) % | 69.5 (N = 2) % |  |  | 
Cc1ccccc1N(CCC1CCCC[N+]1(C)C)C1Cc2ccccc2C1 (centres unmarked) [Example 52, 1,1-Dimethyl-2-[2-((indan-2-yl)(2-methylphenyl)amino)ethyl]piperidinium bromide] |  |  |  |  | 10 to 100 |  | 
Cc1ccccc1N(CC[C@H]1CCCC[N+]1(C)C)C1Cc2ccccc2C1 [Example 51, (R)-1,1-Dimethyl-2-[2-((indan-2-yl)(2-methylphenyl)amino)ethyl]piperidinium chloride] |  |  |  |  | 1 to 10 |  | 
C[N+]1(C)CCCCC1CN(c1ccc(F)cc1)C1Cc2ccccc2C1.[I-] (centres unmarked) [Example 28, 1,1-Dimethyl-2-[((4-fluorophenyl)(indan-2-yl)amino)methyl]piperidinium iodide] | 30.2 | 43.7 (N = 2) % | 61.8 (N = 2) % | 86.6 (N = 2) % |  |  | 
C[N+]1(C)CCCCC1CCN(c1ccc2c(c1)OCCO2)C1Cc2ccccc2C1.[I-] (centres unmarked) [Example 42, 1,1-dimethyl-2-[2-((2,3-dihydrobenzo[b][1,4]dioxin-6-yl)(indan-2-yl)amino)ethyl]piperidinium iodide] | 0 | 64.9 (N = 2) % |  |  |  |  | 
C[N+]1(C)CCCCC1CCN(c1nccs1)C1Cc2ccccc2C1.[I-] (centres unmarked) [Example 39, 1,1-dimethyl-2-[2-((indan-2-yl)(thiazol-2-yl)amino)ethyl]piperidinium iodide] | 10.6 | 11.3 (N = 2) % | 31.3 (N = 2) % | 62.4 (N = 2) % |  |  | 
Cc1ccc(N(CC2CCCC[N+]2(C)C)C2Cc3ccccc3C2)cc1.[I-] (centres unmarked) [Example 27, 1,1-Dimethyl-2-[((indan-2-yl)(4-methylphenyl)amino)methyl]piperidinium iodide] | 68.1 | 81.3 (N = 2) % | 61.4 (N = 2) % | 71.9 (N = 2) % |  |  | 
CC[N+]1(CC)CCCCC1CCN(c1ccc(F)cc1)C1Cc2ccccc2C1.[I-] (centres unmarked) [Example 18, 1,1-diethyl-2-[2-((4-fluorophenyl)(indan-2-yl)amino)ethyl]piperidinium iodide] | 0 | 86.9 (N = 3) % | 0 (N = 3) % | 38.2 (N = 3) % | 10 to 100 |  | 
CC[N+]1(CC)CCCC[C@H]1CCN(c1ccccc1)C1Cc2ccccc2C1.[Br-] [Example 49, (S)-1,1-Diethyl-2-[2-((indan-2-yl)(phenyl)amino)ethyl]piperidinium bromide] | 22.2 |  |  |  | 10 to 100 |  | 
CC[N+]1(CC)CCCCC1CCN(c1cccc(F)c1)C1Cc2ccccc2C1.[I-] (centres unmarked) [Example 17, 1,1-diethyl-2-[2-((3-fluorophenyl)(indan-2-yl)amino)ethyl]piperidinium iodide] | 1 | 86.1 (N = 3) % | 6.1 (N = 3) % | 28.9 (N = 3) % | 10 to 100 |  | 
Cc1cccc(N(CCC2CCCC[N+]2(C)C)C2Cc3ccccc3C2)n1.[Br-] (centres unmarked) [Example 48, 1,1-Dimethyl-2-[2-((indan-2-yl)(6-methylpyridine-2-yl)amino)ethyl]piperidinium bromide] | 29.6 |  |  |  | 10 to 100 |  | 
